Experimental data published in patent US12533362B2, “Methods for treating diseases associated with ciliopathies” (ALEXION PHARMACEUTICALS, INC., priority 2017, dated 2026).

Key:
[1] = pharmacokinetics study in wild type mice; conditions: intraperitoneal; taprenepag isopropyl 1 mg/kg or 8 mg/kg, taprenepag 8 mg/kg; different time points
Procedure: After intraperitoneal injections of taprenepag isopropyl (1 mg/kg or 8 mg/kg) or taprenepag (8 mg/kg), the concentrations of these compounds in various organs were determined at different time points.

[2] = tested on: Nphp1−/− mice; assay: retinal degeneration in Nphp1−/− mouse model; assay type: in vivo
Procedure: Homozygous deletion of NPHP1 is the most common cause of juvenile nephronophthisis 1. Homozygous or compound heterozygous mutations in NPHP1 are also associated with, for example, Joubert syndrome 4 (brain abnormalities) and Senior-Løken syndrome 1 (retinopathy). NPHP1 KO animals were generated to test whether taprenepag can be used to treat these diseases. To establish a CRISPR/Cas9-engineered Nphp1^−/− mouse model, single guide RNAs were injected in C57BL/6J embryos, and generated a 76 bp deletion encompassing the ATG in exon 1 of Nphp1. To characterize the natural history of Nphp1^−/− mouse model, histochemical staining of kidney and retina sections was performed from Nphp1^+/+ and Nphp1^−/− mice.
To evaluate the retinal degeneration, a semi-automated tool was developed to provide detection and quantitative thickness measurements of each retinal layers at five distant plans manually marked on the retinal section (FIG. 38B). Semi-automated quantification analysis confirms a clear decrease in thickness of photoreceptors layers ONL, IS and OS (FIG. 38C).
To assess the effect of Nphp1 deletion on the structural organization of photoreceptors in this model, immunohistochemistry (IH) analysis was performed on retina sections from Nphp1^+/+ and Nphp1^−/− mice (FIGS. 39A and B). Tissues were fixed and fluorescence-labeled with DAPI (for nuclei staining), anti-rhodopsin antibody (for OS staining), and anti-Cep290 antibody (for connecting cilia staining) or PNA (for OS and IS staining), detected using immunofluorescence microscopy.
To assess the effect of Nphp1 deletion on the functionality of photoreceptors, electroretinogram (ERG) was performed on Nphp1^+/+ and Nphp1^−/− mice, under light stimuli of different intensities (FIGS. 40A-C). FIGS. 40A and B show ERG a- and b-waves recorded from the same animals at P21, for a given light intensity. In contrast with Nphp1^+/+ mice, Nphp1^−/− mice display drastically lower ERG amplitudes at a given intensity of light stimulus. […]

[3] = tested on: zebrafish NPHP4 MO; assay: zebrafish NPHP4 morpholino (MO) model; assay type: in vivo
Procedure: Briefly, wild-type Tg(wt1b:GFP) transgenic zebrafish embryos were injected with morpholino (e.g., nphp4 ATG MO) at one-cell stage. At 8 hours post-fertilization (hpf), injected embryos were treated with drug or vehicle in PTU-egg water (1 mL in 12-well plates). At 24 hpf, drug treatment was renewed, and pronase was added at 36 hpf for chorion removal.

[4] = tested on: NPHP patient-derived cells; assay: automated cilia-based ciliogenesis assay in NPHP patient-derived cells; assay type: cell-based, human; conditions: for effect on ciliogenesis (percentage of ciliated cells) as compared with DMSO: drug screening, various tested concentrations, FIG. 5 / FIG. 6; for restoration of ciliogenesis at the highest concentration: 40 μM dinoprostone and 20 μM dmPGE2, may be due to cytotoxicity; for ciliogenesis restorative effect: FIG. 11A
From the text: (§1) To identify compounds for treating diseases associated with ciliopathies such as, for example, NPHP, NPHP patient-derived cells were obtained and cell lines were established. Briefly, peeled renal epithelial cells, which are mostly proximal tubule cells (tbc) recovered from urine of NPHP1-deficient patients, were immortalized by retroviral gene transfer of SV40 T antigen. Cells were fixed and fluorescence-labeled with Hoechst (for nuclei staining), anti-γ-tubulin antibody (for basal bodies staining), and anti-ARL13B antibody (for cilia staining) for detection using immunofluorescence microscopy.
(§2) Briefly, NPHP patient-derived cells and control cells were cultured in complete media, at 39C (non-permissive temperature for SV40 expression), followed by automatic cilia analysis using immunofluorescence microscopy to measure ciliogenesis, e.g., in terms of % cilia. A spinning disk platform may be used for drug screening (FIG. 5, A-J) and ciliogenesis analysis of G3 multi-OMICs dataset (FIG. 29, A-E).
The cilia-based assay described above may be used to identify compounds that restore ciliogenesis. […] Automated random acquisition of 35 images per well may be performed, for example. Each image may have z-stack of 10 images taken at <1 μm intervals.

[5] = target: EP4 receptor (Homo sapiens, UniProt P35408); conditions: cited from earlier work
[6] = tested on: control cells; assay: exogenous PGE2 effect on cilia in control cells; assay type: cell-based; conditions: addition of exogenous PGE2, FIG. 12
[7] = tested on: control normal epithelial cells; assay: automated cilia-based ciliogenesis assay in control normal epithelial cells; assay type: cell-based, human; conditions: control normal cells, FIG. 11A
From the text: as §1, §2
The cilia-based assay described above may be used to identify compounds that restore ciliogenesis. […] Automated random acquisition of 35 images per well may be performed, for example. Each image may have z-stack of 10 images taken at <1 μm intervals. Consecutive imaging of nucleus (Hoechst at 461 nm), basal body (γ-tubulin at 555 nm) and cilia (ARL13b at 647 nm) may be obtained.

[8] = meta-analysis, multiple NPHP patient-derived cell lines

Sequence of EP4 receptor (P35408 whole entry): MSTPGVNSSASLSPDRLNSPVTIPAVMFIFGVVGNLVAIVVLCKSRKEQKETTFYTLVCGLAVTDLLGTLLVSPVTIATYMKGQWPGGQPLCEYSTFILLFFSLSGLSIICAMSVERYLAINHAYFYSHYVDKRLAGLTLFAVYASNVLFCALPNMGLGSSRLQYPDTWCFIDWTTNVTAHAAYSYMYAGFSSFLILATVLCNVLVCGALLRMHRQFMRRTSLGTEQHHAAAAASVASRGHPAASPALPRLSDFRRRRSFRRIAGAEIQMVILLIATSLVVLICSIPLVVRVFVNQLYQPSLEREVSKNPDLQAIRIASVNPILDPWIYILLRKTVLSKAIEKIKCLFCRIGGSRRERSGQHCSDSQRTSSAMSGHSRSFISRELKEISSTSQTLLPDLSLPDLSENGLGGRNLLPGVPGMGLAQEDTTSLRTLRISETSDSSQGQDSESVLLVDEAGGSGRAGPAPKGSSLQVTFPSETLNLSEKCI

## O=C(O)COc1cccc(CN(Cc2ccc(-n3cccn3)cc2)S(=O)(=O)c2cccnc2)c1 [CP-544326, taprenepag]
[1]
  stability in vivo (concentrations in plasma, kidney, testis, retina, vitreous humor): more stable than taprenepag isopropyl
[2]; 18 mg/kg i.p. every 3 or 4 days from P6 until P21, vs vehicle, p<0.05 Mann-Whitney test
  ONL/OPL retina layers thicknesses ratio: significantly prevents the decrease of ONL/OPL ratio
[2]; 18 mg/kg i.p., vs vehicle, p<0.05 unpaired t-test
  rhodopsin mislocalization (Mean Green intensity in ONL): significantly prevented rhodopsin mislocalization
[2]; 18 mg/kg i.p., vs vehicle-treated Nphp1−/− mice
  electroretinogram a-wave amplitude of photoreceptor response: slight improvement in the amplitude of photoreceptor response
[3]; 100 nM vs DMSO, p<0.01 Fischer's exact test
  % severe, mild and normal pronephric cysts: significantly reduces % severe pronephric cysts and increases % mild and normal pronephric cysts
[4]; FIG. 16B
  ciliogenesis, dose response compared to DMSO: restores ciliogenesis in a dose-dependent manner
[4]; cell lines 1-09-P, 1-06-P1 and 1-06-P2 derived from NPHP1(del) patients, FIG. 17C
  ciliogenesis as compared with DMSO: increases ciliogenesis in multiple cell lines
[4]; compared with alprostadil, FIG. 16A
  ciliogenesis, meta-analysis: restores ciliogenesis to a similar level as alprostadil
[4]; [8]
  linear regression pooled slope value of effect on ciliogenesis: 1.36
  linear regression range of slope values of effect on ciliogenesis: 1.245 to 1.532
[4]; semi-log representation of ciliogenesis titration, FIG. 16C, read-out: EC50 for EP2 from CP-544326 titration
  EC50: 11 nM

## Cc1cccc([C@@H](C)[C@H](O)/C=C/[C@@H]2[C@@H]3[C@H](C[C@H]2O)O/C(=C\CCCc2nnn[nH]2)C3(F)F)c1 [KAG-308]
[5]
  EP4 agonist potency: low nanomolar EP4-agonist

## O=C1CC[C@H](/C=C/[C@@H](O)C(F)(F)c2ccccc2)N1CCCCCCc1nnn[nH]1 [L902,688]
[4]; prostanoid EP4 agonist, FIG. 17A
  effect on ciliogenesis: does not significantly affect ciliogenesis

## COc1ccc(C2CC(c3ccccc3)=NN2c2ccc(S(N)(=O)=O)cc2)cc1 (stereo not drawn) [ML-141]
[4]
  effect on ciliogenesis (percentage of ciliated cells) as compared with DMSO: did not have a significant effect on ciliogenesis

## CCCCC[C@H](O)/C=C/[C@H]1[C@H](O)CC(=O)[C@@H]1C/C=C\CCCC(=O)O [dinoprostone, prostaglandin E2]
[6]
  cilia length and percentages of ciliated cells: increased both cilia length and percentages of ciliated cells
[7]
  effect on ciliogenesis: no significant effect was observed
[3]; 50 μM vs DMSO, p<0.008 Fischer's exact test
  % severe, mild and normal pronephric cysts: significantly reduced % severe and mild pronephric cysts and increased % normal pronephric cysts
[3]; 50 μM vs DMSO, p=0.0066 Fischer's exact test
  % normal body axis curvature: significantly increases % normal body axis curvature
[3]; 50 μM vs DMSO, p=0.0577 t-test
  dorsal curvature: did not significantly affect dorsal curvature
[4]
  restoration of ciliogenesis at the highest concentration: slight decrease in restoration of ciliogenesis
  ciliogenesis restorative effect: ciliogenesis restorative effects similar to that of alprostadil

## CCCCC(C)(C)[C@H](O)/C=C/[C@H]1[C@H](O)CC(=O)[C@@H]1C/C=C\CCCC(=O)O [dmPGE2, 16,16-dimethyl-PGE2]
[7]
  effect on ciliogenesis: no significant effect was observed
[4]
  restoration of ciliogenesis at the highest concentration: slight decrease in restoration of ciliogenesis
  ciliogenesis restorative effect: ciliogenesis restorative effects similar to that of alprostadil

## CCN(CC)C(C)CN1c2ccccc2Sc2ccccc21 (stereo not drawn) [ethopropazine]
[4]
  effect on ciliogenesis (percentage of ciliated cells) as compared with DMSO: did not have a significant effect on ciliogenesis

## O=C1c2c(O)ccc(O)c2C(=O)c2c(NCCNCCO)ccc(NCCNCCO)c21 [mitoxantrone]
[4]
  effect on ciliogenesis (percentage of ciliated cells) as compared with DMSO: did not have a significant effect on ciliogenesis

## CC(=O)O[C@H]1C(=O)[C@@]2(C)[C@H]([C@H](OC(=O)c3ccccc3)[C@]3(O)C[C@H](OC(=O)[C@H](O)[C@@H](NC(=O)c4ccccc4)c4ccccc4)C(C)=C1C3(C)C)[C@]1(OC(C)=O)CO[C@@H]1C[C@@H]2O [paclitaxel]
[4]
  effect on ciliogenesis (percentage of ciliated cells) as compared with DMSO: did not have a significant effect on ciliogenesis

## CN(C)CCC(c1ccccc1)c1ccccn1 (stereo not drawn) [pheniramine]
[4]
  effect on ciliogenesis (percentage of ciliated cells) as compared with DMSO: did not have a significant effect on ciliogenesis

## CN1[C@@H]2CC[C@H]1C[C@@H](OC(=O)c1c[nH]c3ccccc13)C2 [tropisetron]
[4]
  effect on ciliogenesis (percentage of ciliated cells) as compared with DMSO: did not have a significant effect on ciliogenesis

## COc1ccc(CCN(C)CCCC(C#N)(c2ccc(OC)c(OC)c2)C(C)C)cc1OC (stereo not drawn) [verapamil]
[4]
  effect on ciliogenesis (percentage of ciliated cells) as compared with DMSO: did not have a significant effect on ciliogenesis
